The text below walks through data of patent US9540391B2, “Isomannide derivatives as inhibitors of soluble epoxide hydrolase” (SANOFI, priority 2013, dated 2017).

The experiment has as its target T1, recombinant sEH (Homo sapiens, UniProt P34913).
T1 construct: made in house; host or cells: Sf9 insect cells
T1 sequence (P34913 1-555): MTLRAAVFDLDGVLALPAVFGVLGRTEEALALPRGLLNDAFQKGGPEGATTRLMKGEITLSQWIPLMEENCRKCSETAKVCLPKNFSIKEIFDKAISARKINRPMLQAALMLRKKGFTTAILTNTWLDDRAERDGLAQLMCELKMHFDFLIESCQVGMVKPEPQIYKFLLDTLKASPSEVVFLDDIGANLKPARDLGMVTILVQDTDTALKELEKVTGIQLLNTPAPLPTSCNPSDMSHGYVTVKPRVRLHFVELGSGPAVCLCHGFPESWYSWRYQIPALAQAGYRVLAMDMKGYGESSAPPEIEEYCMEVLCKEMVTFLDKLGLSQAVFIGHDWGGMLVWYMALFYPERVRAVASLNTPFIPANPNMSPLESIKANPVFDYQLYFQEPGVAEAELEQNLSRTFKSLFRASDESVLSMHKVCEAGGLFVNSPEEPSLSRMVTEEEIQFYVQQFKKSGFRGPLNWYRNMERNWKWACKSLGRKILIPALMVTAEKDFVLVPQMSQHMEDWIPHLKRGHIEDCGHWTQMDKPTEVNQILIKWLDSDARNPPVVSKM
Description: biochemical screening assay for inhibition of soluble epoxide hydrolase (fluorometric, Phome substrate). In outline: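 Reading fluorescence before substrate addition and after completion corrected for autofluorescence. Reaction: 5 μM Phome, 2 nM recombinant human sEH (Sf9-expressed), compound 0.0001–10 μM, 25 mM Hepes with 0.01% albumin, 15 min pre-incubation then 60 min at 30 °C; IC50 derived from % inhibition.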
Regarding `O=C(NC1CCCCC1)N[C@H]1CO[C@H]2[C@@H]1OC[C@@H]2SC1CCS(=O)(=O)C1` (stereo partly drawn) [Example 25, 1-Cyclohexyl-3-[(3S,3aR,6S,6aS)-6-(1,1-dioxo-tetrahydro-1λ6-thiophen-3-ylsulfanyl)-hexahydro-furo[3,2-b]furan-3-yl]-urea], the IC50 (commonly the concentration needed to halve the response being measured) stood at 8 nM.

As for `O=C(NC1CCCCC1)N[C@H]1CO[C@H]2[C@@H]1OC[C@@H]2Oc1cnc(Cl)c(F)c1` [Example 64, 1-[(3S,3aR,6S,6aS)-6-(6-Chloro-5-fluoro-pyridin-3-yloxy)-hexahydro-furo[3,2-b]furan-3-yl]-3-cyclohexyl-urea], the IC50 amounted to 2 nM.

As for `Cc1ncccc1O[C@H]1CO[C@H]2[C@@H]1OC[C@@H]2NC(=O)NC(C)(C)COC(C)(C)C` [Example 226, 1-(2-tert-Butoxy-1,1-dimethyl-ethyl)-3-[(3S,3aR,6S,6aS)-6-(2-methyl-pyridin-3-yloxy)-hexahydro-furo[3,2-b]furan-3-yl]-urea], the IC50 was determined as 475 nM.

For `O=C(NC1CCCCC1)N[C@H]1CO[C@H]2[C@@H]1OC[C@@H]2Oc1cccc([N+](=O)[O-])c1` [Example 140, 1-Cyclohexyl-3-[(3S,3aR,6S,6aS)-6-(3-nitro-phenoxy)-hexahydro-furo[3,2-b]furan-3-yl]-urea], the IC50 was determined as 3 nM.

In the case of `Cc1ncccc1O[C@H]1CO[C@H]2[C@@H]1OC[C@@H]2NC(=O)NCc1cc(F)ccc1OC(F)(F)F` [Example 279, 1-(5-Fluoro-2-trifluoromethoxy-benzyl)-3-[(3S,3aR,6S,6aS)-6-(2-methyl-pyridin-3-yloxy)-hexahydro-furo[3,2-b]furan-3-yl]-urea], the IC50 turned out to be 1 nM.

As for `COc1cc(NC(=O)N[C@H]2CO[C@H]3[C@H](CCc4ccccc4)CO[C@@H]32)cc(OC)c1` [Example 352, 1-(3,5-Dimethoxy-phenyl)-3-[(3S,3aR,6R)-6-((S)-phenethyl)-hexa-hydro-furo[3,2-b]furan-3-yl]-urea], the IC50 was determined as 149 nM.

As for `O=C(NC1CCCCC1)N[C@H]1CO[C@H]2[C@@H]1OC[C@@H]2Oc1ccccc1F` [Example 95, 1-Cyclohexyl-3-[(3S,3aR,6S,6aS)-6-(2-fluoro-phenoxy)-hexahydro-furo[3,2-b]furan-3-yl]-urea], the half-inhibitory concentration (IC50) was determined as 5 nM.

For `Cc1ncccc1O[C@H]1CO[C@H]2[C@@H]1OC[C@@H]2NC(=O)NCc1ccccn1` [Example 172, 1-[(3S,3aR,6S,6aS)-6-(2-Methyl-pyridin-3-yloxy)-hexahydro-furo[3,2-b]furan-3-yl]-3-pyridin-2-ylmethyl-urea], the IC50 is 1240 nM.

On to `CC(C)S[C@H]1CO[C@H]2[C@@H]1OC[C@@H]2NC(=O)NC1CCCCC1` [Example 17, 1-Cyclohexyl-3-((3S,3aR,6S,6aS)-6-isopropylsulfanyl-hexahydro-furo[3,2-b]furan-3-yl)-urea], for which the IC50 was 1 nM.

For `O=C(NC1CCCCC1)N[C@H]1CO[C@H]2[C@@H]1OC[C@@H]2Sc1ccc(Cl)cn1` [Example 63, 1-[(3S,3aR,6S,6aS)-6-(5-Chloro-pyridin-2-ylsulfanyl)-hexahydro-furo[3,2-b]furan-3-yl]-3-cyclohexyl-urea], the IC50 worked out at 1 nM.

Turning to `O=C(NC1CCCCC1)N[C@H]1CO[C@H]2[C@@H]1OC[C@@H]2S(=O)(=O)C1CCCCC1` [Example 74, 1-((3S,3aR,6S,6aS)-6-cyclohexanesulfonyl-hexahydro-furo[3,2-b]furan-3-yl)-3-cyclohexyl-urea], the IC50 was 5 nM.

Regarding `O=C(Nc1cccc(F)c1)N[C@H]1CO[C@H]2[C@@H]1OC[C@@H]2C#Cc1ccsc1` [Example 311, 1-(3-Fluoro-phenyl)-3-((3S,3aR,6S,6aR)-6-thiophen-3-ylethynyl-hexahydro-furo[3,2-b]furan-3-yl)-urea], the IC50 worked out at 146 nM.

On to `O=C(NC1CCCCC1)N[C@H]1CO[C@H]2[C@@H]1OC[C@@H]2C#Cc1ccc2c(c1)OCO2` [Example 281, 1-((3S,3aR,6S,6aR)-6-benzo[1,3]dioxol-5-ylethynyl-hexahydro-furo[3,2-b]furan-3-yl)-3-cyclohexyl-urea], for which the IC50 is 75 nM.

With `O=C(Nc1ccc(F)cc1)N[C@H]1CO[C@H]2[C@@H]1OC[C@@H]2/C=C\c1ccsc1` [Example 340, 1-(4-Fluoro-phenyl)-3-[(3S,3aR,6S,6aR)-6-((Z)-2-thiophen-3-yl-vinyl)-hexahydro-furo[3,2-b]furan-3-yl]-urea], the 50% inhibitory concentration (IC50) was found to be 89 nM.

On to `Cc1ncccc1O[C@H]1CO[C@H]2[C@@H]1OC[C@@H]2NC(=O)NC1CCCCC1(C)C` (stereo partly drawn) [Example 270, 1-(2,2-Dimethyl-cyclohexyl)-3-[(3S,3aR,6S,6aS)-6-(2-methyl-pyridin-3-yloxy)-hexahydro-furo[3,2-b]furan-3-yl]-urea], for which the IC50 is 16 nM.

In the case of `O=C(Nc1ccc(Cl)c(Cl)c1)NC1COC2C(C#Cc3ccccc3)COC12` [Example 290, 1-(3,4-Dichloro-phenyl)-3-[(3S,3aR,6R)-6-((S)-phenylethynyl)-hexahydro-furo[3,2-b]furan-3-yl]-urea], the IC50 came to 13 nM.

Regarding `O=C(Nc1ccccc1)N[C@H]1CO[C@H]2[C@@H]1OC[C@@H]2/C=C\c1ccsc1` [Example 337, 1-Phenyl-3-[(3S,3aR,6S,6aR)-6-((Z)-2-thiophen-3-yl-vinyl)-hexahydro-furo[3,2-b]furan-3-yl]-urea], the IC50 was 423 nM.

In the case of `O=C(NC1CCCCC1)N[C@H]1CO[C@H]2[C@@H]1OC[C@H]2O` [Example 1, 1-cyclohexyl-3-((3S,3aR,6R,6aR)-6-hydroxy-hexahydro-furo[3,2-b]furan-3-yl)-urea], the IC50 is 305 nM.

For the compound `CC(C)(C)NC(=O)N[C@H]1CO[C@H]2[C@@H]1OC[C@@H]2Oc1ccc(F)cc1` [Example 149, 1-tert-Butyl-3-[(3S,3aR,6S,6aS)-6-(4-fluoro-phenoxy)-hexahydro-furo[3,2-b]furan-3-yl]-urea], the IC50 was found to be 2160 nM.

With `O=C(Nc1cccc(C(F)(F)F)c1)N[C@H]1CO[C@H]2[C@@H]1OC[C@@H]2C#Cc1ccsc1` [Example 316, 1-((3S,3aR,6S,6aR)-6-Thiophen-3-ylethynyl-hexahydro-furo[3,2-b]furan-3-yl)-3-(3-trifluoromethyl-phenyl)-urea], the IC50 worked out at 87 nM.

Turning to `O=C(Nc1ccc2c(c1)OCCO2)N[C@H]1CO[C@@H]2[C@@H](CCc3ccccc3)CO[C@@H]21` [Example 369, 1-(2,3-Dihydro-benzo[1,4]dioxin-6-yl)-3-((3S,3aR,6S,6aR)-6-phenethyl-hexahydro-furo[3,2-b]furan-3-yl)-urea], the IC50 came to 22 nM.

As to `Cc1ncccc1O[C@H]1CO[C@H]2[C@@H]1OC[C@@H]2NC(=O)NCC1COCCO1` (stereo partly drawn) [Example 194, 1-[1,4]Dioxan-2-ylmethyl-3-[(3S,3aR,6S,6aS)-6-(2-methyl-pyridin-3-yloxy)-hexahydro-furo[3,2-b]furan-3-yl]-urea], the IC50 was determined as 1470 nM.

Consider `O=C(NCCc1ccccc1)N[C@H]1CO[C@H]2[C@@H]1OC[C@@H]2/C=C\c1ccccc1` [Example 331, 1-Phenethyl-3-[(3S,3aR,6S,6aR)-6-((Z)-styryl)-hexahydro-furo[3,2-b]furan-3-yl]-urea], for which the IC50 was 18 nM.

Regarding `COC[C@@H](NC(=O)N[C@H]1CO[C@H]2[C@@H]1OC[C@@H]2Oc1cccnc1C)c1ccccc1` [Example 237, 1-((S)-2-Methoxy-1-phenyl-ethyl)-3-[(3S,3aR,6S,6aS)-6-(2-methyl-pyridin-3-yloxy)-hexahydro-furo[3,2-b]furan-3-yl]-urea], the IC50 came to 177 nM.

For the compound `Cc1ncccc1O[C@H]1CO[C@H]2[C@@H]1OC[C@@H]2NC(=O)N[C@@H]1CCCC[C@H]1C(C)(C)C` [Example 265, 1-((1R,2S)-2-tert-Butyl-cyclohexyl)-3-[(3S,3aR,6S,6aS)-6-(2-methyl-pyridin-3-yloxy)-hexahydro-furo[3,2-b]furan-3-yl]-urea], the half-inhibitory concentration (IC50) is 111 nM.

As to `COc1ccc([C@@H](C)NC(=O)N[C@H]2CO[C@H]3[C@@H]2OC[C@@H]3Oc2ccc(F)cc2)cc1` [Example 168, 1-[(3S,3aR,6S,6aS)-6-(4-Fluoro-phenoxy)-hexahydro-furo[3,2-b]furan-3-yl]-3-[(R)-1-(4-methoxy-phenyl)-ethyl]-urea], the IC50 worked out at 6 nM.

Regarding `O=C(NC1CCCCC1)N[C@H]1CO[C@H]2[C@@H]1OC[C@@H]2Oc1cncnc1` [Example 44, 1-Cyclohexyl-3-[(3S,3aR,6S,6aS)-6-(pyrimidin-5-yloxy)-hexahydro-furo[3,2-b]furan-3-yl]-urea], the IC50 turned out to be 42 nM.

Regarding `O=C(NC1CCC(F)(F)CC1)N[C@H]1CO[C@H]2[C@@H]1OC[C@@H]2Oc1ccc(F)cc1` [Example 77, 1-(4,4-difluoro-cyclohexyl)-3-[(3S,3aR,6S,6aS)-6-(4-fluoro-phenoxy)-hexahydro-furo[3,2-b]furan-3-yl]-urea], the IC50 is 17 nM.

As to `O=C(Nc1ccc2c(c1)CCC2)N[C@H]1CO[C@@H]2[C@@H](CCc3ccsc3)CO[C@@H]21` [Example 367, 1-Indan-5-yl-3-[(3S,3aR,6S,6aR)-6-(2-thiophen-3-yl-ethyl)-hexahydro-furo[3,2-b]furan-3-yl]-urea], the IC50 was 12 nM.

Take `COC(=O)c1ccc(O[C@H]2CO[C@H]3[C@@H]2OC[C@@H]3NC(=O)NC2CCCCC2)cc1` [Example 10, 4-[(3S,3aS,6S,6aR)-6-(3-cyclohexyl-ureido)-hexahydro-furo[3,2-b]furan-3-yloxy]-benzoic acid methyl ester]: the half-maximal inhibitory concentration (IC50) was 3 nM.
